Measurements from the NIST ThermoML archive (doi:10.1016/j.jct.2007.05.011).

Assay: xn = mol fraction of the nth substance listed
Settings: 101 kPa, Liquid; for mass density: Vibrating tube method

NCCO.O=CO [2-hydroxyethylammonium formate] + CO
Settings | mass density [kg/m3] | speed of sound [m/s]
288.15 K, x2 = 0 | 1183.57 | 1733.9
288.15 K, x2 = 0.055 | 1176.05 | 1744.5
288.15 K, x2 = 0.098 | 1169.59 | 1733.2
288.15 K, x2 = 0.193 | 1153.03 | 1703.2
288.15 K, x2 = 0.296 | 1132.54 | 1666.2
288.15 K, x2 = 0.399 | 1108.24 | 1623.5
288.15 K, x2 = 0.5 | 1079.69 | 1573.6
288.15 K, x2 = 0.598 | 1046.63 | 1516.4
288.15 K, x2 = 0.701 | 1005.33 | 1448.4
288.15 K, x2 = 0.799 | 953.96 | 1365.8
288.15 K, x2 = 0.9 | 887.02 | 1265.2
288.15 K, x2 = 0.951 | 844.491 | 1203.6
290.65 K, x2 = 0 | 1181.81 | 1727.4
290.65 K, x2 = 0.055 | 1174.4 | 1739.2
290.65 K, x2 = 0.098 | 1167.93 | 1727.9
290.65 K, x2 = 0.193 | 1151.34 | 1697.7
290.65 K, x2 = 0.296 | 1130.83 | 1660.7
290.65 K, x2 = 0.399 | 1106.5 | 1617.8
290.65 K, x2 = 0.5 | 1077.9 | 1567.7
290.65 K, x2 = 0.598 | 1044.79 | 1510.3
290.65 K, x2 = 0.701 | 1003.42 | 1441.8
290.65 K, x2 = 0.799 | 951.962 | 1358.8
290.65 K, x2 = 0.9 | 884.894 | 1257.6
290.65 K, x2 = 0.951 | 842.26 | 1195.6
293.15 K, x2 = 0 | 1180.04 | 1721.3
293.15 K, x2 = 0.055 | 1172.74 | 1734
293.15 K, x2 = 0.098 | 1166.26 | 1722.6
293.15 K, x2 = 0.193 | 1149.65 | 1692.4
293.15 K, x2 = 0.296 | 1129.11 | 1655.3
293.15 K, x2 = 0.399 | 1104.75 | 1612.1
293.15 K, x2 = 0.5 | 1076.11 | 1561.8
293.15 K, x2 = 0.598 | 1042.95 | 1504.3
293.15 K, x2 = 0.701 | 1001.51 | 1435.3
293.15 K, x2 = 0.799 | 949.965 | 1351.9
293.15 K, x2 = 0.9 | 882.765 | 1250.2
293.15 K, x2 = 0.951 | 840.027 | 1187.8
295.65 K, x2 = 0 | 1178.27 | 1715.1
295.65 K, x2 = 0.055 | 1171.09 | 1728.8
295.65 K, x2 = 0.098 | 1164.6 | 1717.4
295.65 K, x2 = 0.193 | 1147.97 | 1687
295.65 K, x2 = 0.296 | 1127.4 | 1649.9
295.65 K, x2 = 0.399 | 1103 | 1606.5
295.65 K, x2 = 0.5 | 1074.32 | 1556
295.65 K, x2 = 0.598 | 1041.11 | 1498.2
295.65 K, x2 = 0.701 | 999.603 | 1428.8
295.65 K, x2 = 0.799 | 947.967 | 1345.1
295.65 K, x2 = 0.9 | 880.636 | 1242.7
295.65 K, x2 = 0.951 | 837.792 | 1180
298.15 K, x2 = 0 | 1176.49 | 1709
298.15 K, x2 = 0.055 | 1169.43 | 1723.6
298.15 K, x2 = 0.098 | 1162.94 | 1712.1
298.15 K, x2 = 0.193 | 1146.28 | 1681.7
298.15 K, x2 = 0.296 | 1125.68 | 1644.5
298.15 K, x2 = 0.399 | 1101.26 | 1600.9
298.15 K, x2 = 0.5 | 1072.54 | 1550.2
298.15 K, x2 = 0.598 | 1039.27 | 1492.1
298.15 K, x2 = 0.701 | 997.697 | 1422.3
298.15 K, x2 = 0.799 | 945.97 | 1338.3
298.15 K, x2 = 0.9 | 878.505 | 1235.3
298.15 K, x2 = 0.951 | 835.555 | 1172.1
300.65 K, x2 = 0 | 1174.71 | 1702.9
300.65 K, x2 = 0.055 | 1167.77 | 1718.4
300.65 K, x2 = 0.098 | 1161.28 | 1706.9
300.65 K, x2 = 0.193 | 1144.6 | 1676.4
300.65 K, x2 = 0.296 | 1123.97 | 1639
300.65 K, x2 = 0.399 | 1099.51 | 1595.3
300.65 K, x2 = 0.5 | 1070.75 | 1544.4
300.65 K, x2 = 0.598 | 1037.43 | 1486.1
300.65 K, x2 = 0.701 | 995.792 | 1415.9
300.65 K, x2 = 0.799 | 943.973 | 1331.5
300.65 K, x2 = 0.9 | 876.371 | 1227.9
300.65 K, x2 = 0.951 | 833.316 | 1164.4
303.15 K, x2 = 0 | 1172.94 | 1696.8
303.15 K, x2 = 0.055 | 1166.12 | 1713.2
303.15 K, x2 = 0.098 | 1159.62 | 1701.7
303.15 K, x2 = 0.193 | 1142.91 | 1671.1
303.15 K, x2 = 0.296 | 1122.26 | 1633.6
303.15 K, x2 = 0.399 | 1097.77 | 1589.7
303.15 K, x2 = 0.5 | 1068.96 | 1538.6
303.15 K, x2 = 0.598 | 1035.59 | 1480
303.15 K, x2 = 0.701 | 993.884 | 1409.5
303.15 K, x2 = 0.799 | 941.97 | 1324.7
303.15 K, x2 = 0.9 | 874.236 | 1220.6
303.15 K, x2 = 0.951 | 831.073 | 1156.6
305.65 K, x2 = 0 | 1171.16 | –
305.65 K, x2 = 0.055 | 1164.47 | –
305.65 K, x2 = 0.098 | 1157.95 | –
305.65 K, x2 = 0.193 | 1141.23 | –
305.65 K, x2 = 0.296 | 1120.55 | –
305.65 K, x2 = 0.399 | 1096.02 | –
305.65 K, x2 = 0.5 | 1067.17 | –
305.65 K, x2 = 0.598 | 1033.75 | –
305.65 K, x2 = 0.701 | 991.972 | –
305.65 K, x2 = 0.799 | 939.967 | –
305.65 K, x2 = 0.9 | 872.095 | –
305.65 K, x2 = 0.951 | 828.823 | –
